Reference: ChEMBL document CHEMBL5338818, “Discovery of the First Potent, Selective, and In Vivo Efficacious Polo-like Kinase 4 Proteolysis Targeting Chimera Degrader for the Treatment of TRIM37-Amplified Breast Cancer” (J Med Chem, 2023)
Active and inactive are the calls of the source. The rule behind the calls is not given here.

Columns and labels:
[1] = Metabolic stability in human liver microsomes assessed as intrinsic clearance at 100 uM incubated for 60 mins in presence of NADPH by LC-MS/MS analysis; format: ADME, Microsome; settings: read-out: CLH
CYP3A4 = CYP3A4 (Homo sapiens, UniProt P08684); test: Inhibition of CYP3A4 in human liver microsomes at 10 uM using ketoconazole as substrate preincubated for 10 mins followed by NADPH regenerating system addition and measured after 15 mins by LC-MS/MS analysis relative to control; format: ADME, Microsome; settings: time 25 min
CYP3A4, sequence (P08684 whole entry): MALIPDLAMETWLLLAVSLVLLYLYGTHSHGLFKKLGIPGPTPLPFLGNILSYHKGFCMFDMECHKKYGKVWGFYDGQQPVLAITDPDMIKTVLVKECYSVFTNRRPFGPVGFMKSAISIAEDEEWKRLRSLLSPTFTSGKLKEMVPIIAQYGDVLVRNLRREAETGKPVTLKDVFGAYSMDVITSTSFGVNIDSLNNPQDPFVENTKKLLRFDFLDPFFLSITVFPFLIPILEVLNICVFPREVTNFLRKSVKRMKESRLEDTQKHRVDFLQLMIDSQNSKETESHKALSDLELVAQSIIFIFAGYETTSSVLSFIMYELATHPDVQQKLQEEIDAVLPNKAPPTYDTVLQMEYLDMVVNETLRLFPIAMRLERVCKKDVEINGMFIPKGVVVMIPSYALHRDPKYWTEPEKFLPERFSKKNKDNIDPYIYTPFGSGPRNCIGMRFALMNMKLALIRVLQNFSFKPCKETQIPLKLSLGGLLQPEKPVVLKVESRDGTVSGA

[2] = Metabolic stability in mouse liver microsomes assessed as half life at 100 uM incubated for 60 mins in presence of NADPH by LC-MS/MS analysis; format: ADME, Microsome
[3] = AUClast in ICR mouse at 2 mg/kg, iv measured upto 24 hrs by LC-M/MS analysis; format: ADME, organism-based; parameters: time < 24 hrs, dose 2 mg/kg, route iv; settings: in vivo
[4] = Metabolic stability in rat liver microsomes assessed as half life at 100 uM incubated for 60 mins in presence of NADPH by LC-MS/MS analysis; format: ADME, Microsome
MCF7 [5] = test: Antitumor activity against human MCF7 cells xenografted in nu/nu mouse assessed as reduction in Ki-67 at 20 mg/kg,ip administered once every other day for 21 days by immunohistochemical analysis; format: functional, organism-based; settings: time 21.0 day
MCF7 [6] = test: Inhibition of human MCF7 cells migration at 0.1 to 1 uM by inverted microscopic analysis; format: functional, cell-based; settings: dose 0.1-1 µM, time 48.0 hrs, TDE = time-dependent effect
CYP2D6 = test: Inhibition of CYP2D6 in human liver microsomes at 10 uM using quinidine as substrate preincubated for 10 mins followed by NADPH regenerating system addition and measured after 15 mins by LC-MS/MS analysis relative to control; format: ADME, Microsome; settings: time 25 min
[7] = molecular target: T1, Protein cereblon/Serine/threonine-protein kinase PLK4 (Homo sapiens, UniProt O00444+Q96SW2); test: Protac activity at CRBN/PLK4 in human MCF7 cells at 0.1 uM incubated for 48 hrs by Western blot analysis; format: cell-based
Target sequence in this assay (O00444 whole entry, looked up): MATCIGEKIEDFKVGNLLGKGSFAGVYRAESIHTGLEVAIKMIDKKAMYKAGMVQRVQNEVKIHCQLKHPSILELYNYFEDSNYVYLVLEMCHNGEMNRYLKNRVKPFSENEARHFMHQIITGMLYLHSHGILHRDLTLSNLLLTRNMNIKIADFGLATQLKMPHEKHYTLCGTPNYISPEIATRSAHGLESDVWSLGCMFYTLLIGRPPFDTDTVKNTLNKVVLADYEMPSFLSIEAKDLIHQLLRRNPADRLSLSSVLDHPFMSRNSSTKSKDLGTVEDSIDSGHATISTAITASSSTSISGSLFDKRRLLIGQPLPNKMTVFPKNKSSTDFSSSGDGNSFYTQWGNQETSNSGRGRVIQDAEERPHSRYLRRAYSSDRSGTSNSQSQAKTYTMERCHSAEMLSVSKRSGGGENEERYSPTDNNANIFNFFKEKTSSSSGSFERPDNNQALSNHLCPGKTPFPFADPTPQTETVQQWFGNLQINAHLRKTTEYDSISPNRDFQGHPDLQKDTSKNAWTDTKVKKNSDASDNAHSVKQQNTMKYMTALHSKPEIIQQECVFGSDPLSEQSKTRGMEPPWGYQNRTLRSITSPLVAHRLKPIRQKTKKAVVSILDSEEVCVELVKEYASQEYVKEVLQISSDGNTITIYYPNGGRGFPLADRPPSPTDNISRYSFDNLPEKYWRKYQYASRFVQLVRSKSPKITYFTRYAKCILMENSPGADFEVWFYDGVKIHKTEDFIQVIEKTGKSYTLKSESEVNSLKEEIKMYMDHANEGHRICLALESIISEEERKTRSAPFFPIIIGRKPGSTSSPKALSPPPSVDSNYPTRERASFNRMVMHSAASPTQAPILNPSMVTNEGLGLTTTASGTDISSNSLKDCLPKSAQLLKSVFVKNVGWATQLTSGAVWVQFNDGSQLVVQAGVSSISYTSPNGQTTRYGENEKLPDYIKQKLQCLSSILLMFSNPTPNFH
Target sequence in this assay (Q96SW2 whole entry, looked up): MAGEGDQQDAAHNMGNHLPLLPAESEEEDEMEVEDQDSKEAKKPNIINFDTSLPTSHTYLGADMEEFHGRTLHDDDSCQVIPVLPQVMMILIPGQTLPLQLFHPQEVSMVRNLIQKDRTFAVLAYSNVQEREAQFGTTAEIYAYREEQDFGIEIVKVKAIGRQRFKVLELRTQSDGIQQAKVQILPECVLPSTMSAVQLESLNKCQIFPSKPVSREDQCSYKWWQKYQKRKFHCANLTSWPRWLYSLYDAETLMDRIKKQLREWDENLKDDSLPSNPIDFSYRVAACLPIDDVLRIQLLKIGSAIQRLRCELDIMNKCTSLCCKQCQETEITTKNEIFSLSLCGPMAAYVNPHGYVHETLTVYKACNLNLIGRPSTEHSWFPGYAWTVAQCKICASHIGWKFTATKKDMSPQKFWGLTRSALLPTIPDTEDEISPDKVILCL

[8] = molecular target: T1, Protein cereblon/Serine/threonine-protein kinase PLK4; test: Protac activity at CRBN/PLK4 in human MCF7 cells at 10 uM incubated for 48 hrs by Western blot analysis; format: cell-based
Target sequence in this assay (O00444 whole entry, looked up): as the sequence (O00444 whole entry, looked up) above
Target sequence in this assay (Q96SW2 whole entry, looked up): as the sequence (Q96SW2 whole entry, looked up) above

[9] = AUClast in ICR mouse at 20 mg/kg, ip measured upto 24 hrs by LC-M/MS analysis; format: ADME, organism-based; parameters: dose 20 mg/kg, time < 24 hrs, route ip; settings: in vivo
[10] = molecular target: T1, Protein cereblon/Serine/threonine-protein kinase PLK4; test: Protac activity at CRBN/PLK4 in human MCF7 cells at 1 uM in presence of MG132 by Western blot analysis; format: cell-based
Target sequence in this assay (O00444 whole entry, looked up): as the sequence (O00444 whole entry, looked up) above
Target sequence in this assay (Q96SW2 whole entry, looked up): as the sequence (Q96SW2 whole entry, looked up) above

[11] = Stability in human plasma assessed as compound remaining at 100 uM after 60 mins by LC-MS/MS analysis (reference value: 100%); format: ADME, cell-free; settings: read-out: Stability
[12] = molecular target: T1, Protein cereblon/Serine/threonine-protein kinase PLK4; test: Protac activity at CRBN/PLK4 in human MCF7 cells by Western blot analysis; format: cell-based
Target sequence in this assay (O00444 whole entry): as the sequence (O00444 whole entry, looked up) above
Target sequence in this assay (Q96SW2 whole entry): as the sequence (Q96SW2 whole entry, looked up) above

[13] = Metabolic stability in rat liver microsomes assessed as compound remaining at 100 uM incubated for 60 mins in presence of NADPH by LC-MS/MS analysis; format: ADME, Microsome; settings: read-out: Stability
[14] = Metabolic stability in human liver microsomes assessed as compound remaining at 100 uM incubated for 60 mins by LC-MS/MS analysis; format: ADME, Microsome; settings: read-out: Stability
MCF7 [15] = test: Antitumor activity against human MCF7 cells xenografted in nu/nu mouse assessed as tumor growth inhibition at 20 mg/kg, ip administered once every other day for 21 days; format: functional; settings: MCF7, 504 h, time 21 day, read-out: TGI
[16] = Metabolic stability in human liver microsomes assessed as half life at 100 uM incubated for 60 mins in presence of NADPH by LC-MS/MS analysis; format: ADME, Microsome

## Cc1cc(Nc2nc(NCc3ccc(F)cc3F)nc3c2cnn3C2CCN(C(=O)C3CCN(c4ccc5c(c4)C(=O)N(C4CCC(=O)NC4=O)C5=O)CC3)CC2)n[nH]1 (stereo not drawn)
[1]
  microsomal CLint at 100 µM: 21.7 µL/min/mg
CYP3A4
  inhibition at 0.25 h, 10 µM: 20.4%
[2]
  half-life at 100 µM: 1.35 h
[3]
  AUC(0-t) at 24 h: 941 ng·h/mL
[4]
  half-life at 100 µM: 1.11 h
MCF7 [5]
  inhibition: Active
MCF7 [6]
  inhibition: Tde
CYP2D6
  inhibition at 0.25 h, 10 µM: 5.6%
[7]
  Activity: 68.3%
[8]
  Activity: 83.5%
[9]
  AUC(0-t) at 24 h: 14000 ng·h/mL
[10]
  Activity: Active
[11]
  remaining at 1 h, 100 µM: 83.6%
[12]
  DC50: 19.5 nM
[13]
  remaining at 1 h, 100 µM: 51.5%
[14]
  remaining at 1 h, 100 µM: 97.3%
MCF7 [15]
  inhibition in vivo at 20 mg/kg: 73.7%
[16]
  half-life at 100 µM: 1.06 h
